Test results reported in patent US11338040B2, “Immunomodulatory compounds” (Leidos, Inc., priority 2020, dated 2022).
Non-standard residues stand in square brackets, D forms with d. Residues, ends and D or L forms follow the SMILES beside them. PEG4 = NCCOCCOCCOCCOCCC(=O)O

Experiments:
[1] = target: T1, interaction between LAG3 and MHC-II (Homo sapiens, UniProt P18627); assay: HTRF (TR-FRET) LAG3/MHC-II binding assay; conditions: for response in dilution curve (HTRF signal): 10-fold dilutions starting at 100 μM or 10 μM, FIGS. 2A-9B; for effect on HTRF signal: tested at 100 μM, 10 μM, and 1 μM, FIG. 1
T1 construct: purchased Cisbio US Inc
T1 sequence (P18627 23-450 limits assumed): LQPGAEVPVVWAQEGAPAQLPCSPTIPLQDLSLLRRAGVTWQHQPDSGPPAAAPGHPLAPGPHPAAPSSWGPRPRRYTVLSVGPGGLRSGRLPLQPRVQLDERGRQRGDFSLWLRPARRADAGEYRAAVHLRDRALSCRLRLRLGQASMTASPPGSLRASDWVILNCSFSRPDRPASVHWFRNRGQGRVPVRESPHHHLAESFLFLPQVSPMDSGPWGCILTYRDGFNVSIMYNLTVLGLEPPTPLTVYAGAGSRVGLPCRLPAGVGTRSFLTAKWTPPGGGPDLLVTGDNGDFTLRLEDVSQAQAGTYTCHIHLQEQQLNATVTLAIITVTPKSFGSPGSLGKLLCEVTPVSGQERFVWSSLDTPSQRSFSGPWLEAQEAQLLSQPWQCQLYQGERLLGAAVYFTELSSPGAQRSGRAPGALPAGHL
Source text: A Homogeneous Time-resolved Fluorescence (HTRF) LAG3/MHC-II binding assay (Cisbio US Inc.) was used to measure the interaction between MHC-II and LAG3 in the presence of various peptides and peptide conjugates. In this assay, the interaction between Tag1-LAG3 and Tag2-MHC-II is detected by using anti-Tag1-Terbium (HTRF donor) and anti-Tag2-XL665 (HTRF acceptor). When the donor and acceptor antibodies are brought into close proximity due to LAG3 and MHC-II binding, excitation of the donor antibody triggers fluorescent resonance energy transfer (FRET) towards the acceptor antibody, which in turn emits specifically at 665 nm. This specific signal is directly proportional to the extent of LAG3/MHC-II interaction. Thus, an agent that blocks the interaction between LAG3 and MHC-II will cause a reduction in HTRF ratio.
Each of peptide conjugates BT1, BT2, BT3, BT4, BT5, BT6, BT7, BT8, BT9, and peptides LG11 (LAG3-11), LAG3-56 (SEQ ID NO:5), and LAG3-42 (SEQ ID NO:6) was tested at 3 concentrations: 100 μM, 10 μM, and 1 μM. The dashed-lines represent the HTRF ratio readout of a control ovalbumin peptide (OVA, SEQ ID NO:7) (baseline) at the respective concentrations.
peptide conjugates and LG peptides were tested in full dilution curves in the LAG3:MHCII TR-FRET Assay described above to estimate IC50. peptide conjugates were tested starting at 100 μM or 10 μM. LG peptides were tested starting at 100 μM.

[2] = target: T2, PD1 (Homo sapiens, UniProt Q15116); assay: PD1/PDL1 cell reporter assay (PathHunter, Jurkat PD1/SHP1 EFC cells co-incubated with PDL1-presenting U2OS cells); format: cell-based; conditions: peptide conjugates at 3.6 μM, 10.8 μM, 32.5 μM in triplicate; FIG. 10
T2 construct: expressed in transfected cells; host or cells: Jurkat cells (PD1-EFC and SHP1-EFC) co-cultured with PDL1-presenting U2OS cells
T2 sequence (Q15116 25-288): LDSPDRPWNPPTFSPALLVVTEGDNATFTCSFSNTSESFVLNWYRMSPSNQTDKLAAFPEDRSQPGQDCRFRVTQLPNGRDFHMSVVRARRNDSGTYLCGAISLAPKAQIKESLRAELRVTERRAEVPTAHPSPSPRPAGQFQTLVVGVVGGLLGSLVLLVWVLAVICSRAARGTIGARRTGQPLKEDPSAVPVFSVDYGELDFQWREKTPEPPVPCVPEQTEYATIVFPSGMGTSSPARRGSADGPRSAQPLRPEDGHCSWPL
Protocol: Jurkat cells expressing PD1 and SHP1 proteins, each fused to a fragment of enzyme fragment complementation (EFC) system, were co-incubated with PDL1-presenting U2OS cells. […] Cells in co-culture were incubated at room temperature (RT) for 2 h (PD1 assay). The assay signal was generated using the PathHunter Bioassay Detection kit. Microplates were read following signal generation using a PerkinElmer ENVISION™ instrument for chemiluminescent signal detection. Inhibitory peptides or antibodies added to the culture result in reduction of light signal. The degree of inhibition was calculated using the following formula: Percent inhibition=100%×[1−(mean RLU of test sample−mean RLU of vehicle control)/mean RLU of EC80 control−mean RLU of vehicle control)].
Peptide conjugates BT1-BT11 were tested at three concentrations: 3.6 μM, 10.8 μM, 32.5 μM in triplicate wells. peptide conjugates were dissolved in DMSO and serially diluted in assay buffer. The highest concentration that can be tested in this assay was 32.5 μM peptide conjugate (1% DMSO).
Peptides LD12 (SEQ ID NO:9), LD10 (SEQ ID NO:1), and LD16 (SEQ ID NO:10) were tested at three concentrations: 11 μM, 33 μM, 100 μM in triplicate. LD peptides were dissolved in water and serially diluted in assay buffer. RLUs were measured at the end of the assay, and % Inhibition (% Efficiency) was calculated using the formula above.

[3] = Precipitation on dilution in assay buffer; format: physicochemical; conditions: 100 μM final in assay buffer
Protocol: FIG. 1 is a graph reporting the results of a TR-FRET assay testing the ability of peptide conjugates and individual peptides to affect the interaction between LAG3 and MHC-II. * indicates precipitation when diluted in assay buffer at 1 mM (100 μM final).

| Structure (SMILES) | response in dilution curve (HTRF signal) [1] | effect on HTRF signal [1] | inhibition of PD1 activity (percent inhibition of light signal) [2] | precipitation in assay buffer [3] | IC50 ([1]; LAG3:MHCII TR-FRET full dilution curves) |
| --- | --- | --- | --- | --- | --- |
| CC[C@H](C)[C@H](NC(=O)[C@H](CO)NC(=O)[C@@H](NC(=O)[C@H](CC(C)C)NC(=O)[C@H](CCCNC(=N)N)NC(=O)[C@@H](NC(=O)[C@H](CC(N)=O)NC(=O)[C@@H](NC(=O)[C@@H](NC(=O)[C@H](C)NC(=O)[C@@H]1CCCN1C(=O)[C@H](CC(C)C)NC(=O)[C@H](CO)NC(=O)[C@H](CCC(N)=O)NC(=O)CCOCCOCCOCCOCCNC(=O)[C@H](CO)NC(=O)[C@H](C)NC(=O)[C@@H]1CCCN1C(=O)[C@H](Cc1c[nH]c2ccccc12)NC(=O)[C@H](CCC(=O)O)NC(=O)[C@@H]1CCCN1C(=O)[C@H](CC(C)C)NC(=O)[C@H](Cc1c[nH]cn1)NC(=O)[C@H](Cc1c[nH]c2ccccc12)NC(=O)[C@@H]1CCCN1C(=O)[C@H](CCC(=O)O)NC(=O)[C@H](CC(=O)O)NC(=O)[C@H](Cc1c[nH]c2ccccc12)NC(=O)[C@H](Cc1c[nH]c2ccccc12)NC(=O)[C@H](CCC(N)=O)NC(=O)CNC(=O)[C@@H](NC(=O)CNC(=O)[C@H](CCC(=O)O)NC(=O)[C@@H](N)Cc1c[nH]c2ccccc12)[C@@H](C)O)[C@@H](C)O)[C@@H](C)CC)C(C)C)[C@@H](C)O)C(=O)N[C@@H](CCC(N)=O)C(=O)NCC(=O)N[C@H](C(=O)N[C@H](CO)C(N)=O)[C@@H](C)O [BT5] (H-WEGTGQWWDEPWHLPEWPAS[PEG4]QSLPATINVRLTSIQGT[dS]-NH2) | reduced the HTRF signal at 10 μM | reduced the HTRF signal | did not show inhibition at any of the tested concentrations | precipitation occurred at 100 μM | – |
| CC[C@H](C)[C@H](NC(=O)[C@H](CCC(N)=O)NC(=O)CNC(=O)[C@@H](NC(=O)[C@@H](CO)NC(=O)CCOCCOCCOCCOCCNC(=O)[C@H](Cc1c[nH]c2ccccc12)NC(=O)[C@H](CCC(=O)O)NC(=O)CNC(=O)[C@@H](NC(=O)CNC(=O)[C@H](CCC(N)=O)NC(=O)[C@H](Cc1c[nH]c2ccccc12)NC(=O)[C@H](Cc1c[nH]c2ccccc12)NC(=O)[C@H](CC(=O)O)NC(=O)[C@H](CCC(=O)O)NC(=O)[C@@H]1CCCN1C(=O)[C@H](Cc1c[nH]c2ccccc12)NC(=O)[C@H](Cc1c[nH]cn1)NC(=O)[C@H](CC(C)C)NC(=O)[C@@H]1CCCN1C(=O)[C@H](CCC(=O)O)NC(=O)[C@H](Cc1c[nH]c2ccccc12)NC(=O)[C@@H]1CCCN1C(=O)[C@H](C)NC(=O)[C@@H](N)CO)[C@@H](C)O)[C@@H](C)O)C(=O)N[C@@H](CO)C(=O)N[C@H](C(=O)N[C@@H](CC(C)C)C(=O)N[C@@H](CCCNC(=N)N)C(=O)N[C@H](C(=O)N[C@@H](CC(N)=O)C(=O)N[C@H](C(=O)N[C@H](C(=O)N[C@@H](C)C(=O)N1CCC[C@H]1C(=O)N[C@@H](CC(C)C)C(=O)N[C@@H](CO)C(=O)N[C@@H](CCC(N)=O)C(N)=O)[C@@H](C)O)[C@@H](C)CC)C(C)C)[C@@H](C)O [BT2] | reduced the HTRF signal at 10 μM | reduced the HTRF signal | did not show inhibition at any of the tested concentrations | precipitation occurred at 100 μM | 8.44 µM |
| CC[C@H](C)[C@H](NC(=O)[C@H](CO)NC(=O)[C@@H](NC(=O)[C@H](CC(C)C)NC(=O)[C@H](CCCNC(=N)N)NC(=O)[C@@H](NC(=O)[C@H](CC(N)=O)NC(=O)[C@@H](NC(=O)[C@@H](NC(=O)[C@H](C)NC(=O)[C@@H]1CCCN1C(=O)[C@H](CC(C)C)NC(=O)[C@H](CO)NC(=O)[C@H](CCC(N)=O)NC(=O)CCOCCOCCOCCOCCNC(=O)[C@H](Cc1c[nH]c2ccccc12)NC(=O)[C@H](CCC(=O)O)NC(=O)CNC(=O)[C@@H](NC(=O)CNC(=O)[C@H](CCC(N)=O)NC(=O)[C@H](Cc1c[nH]c2ccccc12)NC(=O)[C@H](Cc1c[nH]c2ccccc12)NC(=O)[C@H](CC(=O)O)NC(=O)[C@H](CCC(=O)O)NC(=O)[C@@H]1CCCN1C(=O)[C@H](Cc1c[nH]c2ccccc12)NC(=O)[C@H](Cc1c[nH]cn1)NC(=O)[C@H](CC(C)C)NC(=O)[C@@H]1CCCN1C(=O)[C@H](CCC(=O)O)NC(=O)[C@H](Cc1c[nH]c2ccccc12)NC(=O)[C@@H]1CCCN1C(=O)[C@H](C)NC(=O)[C@@H](N)CO)[C@@H](C)O)[C@@H](C)O)[C@@H](C)CC)C(C)C)[C@@H](C)O)C(=O)N[C@@H](CCC(N)=O)C(=O)NCC(=O)N[C@H](C(=O)N[C@H](CO)C(N)=O)[C@@H](C)O [BT4] (H-SAPWEPLHWPEDWWQGTGEW[PEG4]QSLPATINVRLTSIQGT[dS]-NH2) | reduced the HTRF signal at 10 μM | reduced the HTRF signal | did not show inhibition at any of the tested concentrations | precipitation occurred at 100 μM | – |
